# Results reported in patent publication US12090157B2, “Non-invasive pet imaging of CDK4/6 activation in cancer” (New York University, priority 2020, dated 2024).
# “And” between values parts separate entries of the source, which are not always exact repeats. Identical values can stand only once. Like-named read-outs stand apart in the source and are kept apart here.
# Experiments:
# CDK4/6 = experiment: IC50 binding affinity, competitive ATP quantitative assay (CellTiter-Glo, MCF-7 cells); assay type: cell-based, human; settings: for binding affinity to CDK4/6: FIG. 2A legend
# Experimental: (§1) IC50 values were determined using a competitive ATP quantitative assay. […]. MCF-7 cells were cultured at 37° C. for 4 h. Then, ^19F-CDKi or vehicle was added at different concentration and incubated at 37° C. for 96 h. Cell viability was then assessed using CellTiter-Glo® Luminescent Assay (Promega, Madison, WI), used accordingly to manufacturer's guidelines. Cell viability inhibition (%) was calculated according to the formula [1−(mean luminosity of treated sample/mean luminosity of vehicle control)]×100. IC50 for growth or viability inhibition was calculated using Graph Prism 8 (GraphPad Software Inc, La Jolla, CA). We used ^18F-CDKi and palbobiclib for competitive displacement studies. MCF-7 cells were seeded in a 12 wells plate (1×10^5 cells 24 h prior the experiment). The next day, a fixed concentration of ^18F-CDKi (50 nM) was co-incubated with linearly doubling concentrations of palbociclib (from 0 to 500 nM) at 37° C. for 2 h. Then, the cells were washed twice with PBS, lysed with 1N NaOH, and the activity (CPM) measured in a γ-counter for bound ^18F radioligand. The percentage of bound radioligand was finally plotted against palbociclib concentration. Competitive displacement curves were fitted using Graph Prism 8 (GraphPad Software Inc, La Jolla, CA).
# MCF-7 cells [1] = experiment: In vitro cell-associated uptake of ^18F-CDKi; assay type: cell-based, human
# Experimental: MCF-7 cells were seeded in a 6 well plates (5×10^6 cells 24 hours prior the experiment). The next day, ^18F-CDKi was added alone or together with a 50-fold excess Palbociclib and incubated at 37° C. for 1 h. After 1 h, cells were firstly washed three times with PBS, then lysed with 1N NaOH, and finally media and cells counted in a γ-counter. The percentage of bound/unbound radioligand at each time point was measured in triplicate and plotted as a function of time.
# Blood half-life = assay type: in vivo, mouse; settings: mice, single bolus intravenous injection
# Experimental: The blood half-life of ^18F-CDKi was calculated by measuring the activity of blood samples collected at different time points p.i. (5, 15, 30, 45, 60, 90 and 120 minutes). Female nude mice (n=3) were injected via lateral tail vein with ^18F-CDKi (and blood samples obtained by retro-orbital bleed using tared capillary tubes. Samples were weighed, and activity was measured by γ-counter. The blood half-life was calculated using Graph Prism 7 (GraphPad Software, La Jolla, CA) using a two-phase decay least squares fitting method and expressed as % ID/g.
# In vitro stability = assay type: in vitro ADME; settings: after 4 h of incubation
# [2] = Octanol/water partition coefficient; assay type: physicochemical; settings: 1-octanol / phosphate buffered saline pH 7.4
# Experimental: The Chemical Hydrophobicity Indices (CHI) were measured using a previously developed procedure (Valkó, Journal Chromatogr A. 2004; 1037:299-310, Valkó et al., Anal Chem. 1997; 69:2022-2029. Briefly, reverse phase HPLC was used to measure the retention times of a set of standards with known CHI. A standard curve was then created to calculate the CHI of […] based on the HPLC retention time. The lipophilicity of the ^18F-CDKi was acquired by adding 0.09 mBq to a mixture of 0.5 mL of 1-octanol and 0.5 mL of 25 mM phosphate buffered saline (pH 7.4) and mixed for 5 minutes. Then, the mixture was centrifuged at 15.000 rpm for 5 minutes. 100 μL samples were obtained from organic and aqueous layers, and the radioactivity of the samples were measured in a WIZARD^2 automatic γ-counter. The experiment was performed in triplicate, and the resulting log Pow was calculated as the mean±SD.
# MCF-7 xenografts = experiment: MicroPET/CT imaging and ex-vivo biodistribution in MCF-7 bearing mice; design: species or system mouse; settings: for kidney concentration / liver concentration / small intestines concentration: 2 h post injection
# Experimental: Female athymic nude CrTac:NCr-Foxnlnu mice (n=35) were purchased from Taconic Laboratories (Hudson, NY). 20 mice received subcutaneous injections with 2×10^6 human MCF-7 cancer cells in Matrigel® (BD Biosciences, San Jose, CA) into each right shoulder and were allowed to grow for approximately two months until the tumors reached ˜10 mm in diameter. All mice were supplemented with 60 days 0.72 mg slow release estradiol pellets purchased from Innovative Research of America (IRA, Sarasota, FL) implanted in the left flank. Mice were anesthetized (isoflurane 1.5%, 2 L/min medical air) during tumor implantation and microPET imaging.
# Twelve subcutaneous MCF-7 implanted athymic nude mice were divided in two groups (blocked and unblocked) and administered with ^18F-CDKi (˜7.4 mBq) via tail vein injection. Approximately 5 min prior to PET acquisition, mice were anesthetized by inhalation of a mixture of isoflurane (Baxter Healthcare, Deerfield, IL, USA; 2% isoflurane, 2 L/min medical air) and positioned on the scanner bed. Anesthesia was maintained using a 1% isoflurane/O2 mixture. PET data for each mouse was recorded and acquired at 30 min p.i and at 120 min p.i. Blocking studies were performed after a pre-injection of 50-fold excess palbociclib (8.4 nmol, 3.8 μg, 30 min before). The duration of the microPET/CT imaging sessions was 20 min each.
# Biodistribution of ^18F-CDKi was performed in subcutaneous MCF-7 bearing athymic nude mice (n=8). Mice were divided (n=4/group) in blocked and unblocked (50-fold excess palbociclib, 30 minutes before) and administered with ^18F-CDKi via tail vein injection (1.85 mBq). At 120 minutes post injection of the radioligand, the mice were sacrificed and organs of interest were collected. Organs were weighed, and activity was measured with a WIZARD^2 automatic γ-counter (PerkinElmer, Boston, MA). The radiopharmaceutical uptake was expressed as a percentage of injected dose per gram (% ID/g) using the following formula: [(activity in the target organ/grams of tissue)/injected dose]×100%.
# MCF-7 cells [3] = experiment: Competitive displacement of ^18F-CDKi by palbociclib in MCF-7 cells; assay type: cell-based, human; settings: 50 nM ^18F-CDKi, palbociclib 0 to 500 nM, 2 h, read-out: inhibition effect, competitive displacement of palbociclib
# Experimental: as §1
# [4] = first of two values joined by 'or'
# [5] = second of two values joined by 'or'
structure (smiles),measurement,setting,value
CC(=O)c1c(C)c2cnc(Nc3ccc(N4CCN(C(=O)c5ccc([18F])cc5)CC4)cn3)nc2n(C2CCCC2)c1=O [^18F-CDKi],IC50,"CDK4/6; FIG. 2A, read-out: targeting affinity to CDK4/6",~13 nM
same,IC50 against both CDK4 and CDK6 kinases,CDK4/6; in words,single digit nanomolar
same,binding affinity to CDK4/6,CDK4/6; in words,nanomolar
same,IC50,"CDK4/6; in words, similar to the parent compound palbociclib",nanomolar range
same,"cell uptake blocked by excess of cold, unlabeled palbociclib",MCF-7 cells [1],> 98%
same,maximum intracellular concentration,MCF-7 cells [1]; 10 minutes post incubation,~65%
same,tracer uptake when co-incubated with a molar excess of Palbociclib,MCF-7 cells [1]; blocked,< 5%
same,in vivo blood half-life t1/2(weighted),Blood half-life,7.03 min and 7 min
same,"in vitro stability, parent compound intact",In vitro stability,more than 98%
same,octanol/water phase partition coefficient (log DO/W),[2],1.91±0.24
same,logD,[2]; read-out: octanol/water phase partition coefficient (log DO/W),1.91 ± 0.24
same,kidney concentration,MCF-7 xenografts; [4],7.99±0.7 % ID/g
same,liver concentration,MCF-7 xenografts; [4],6±0.5 % ID/g
same,small intestines concentration,MCF-7 xenografts; [4],9.6±2.7 % ID/g
same,kidney concentration,MCF-7 xenografts; [5],9.6±0.98 % ID/g
same,liver concentration,MCF-7 xenografts; [5],6.77±1.15 % ID/g
same,small intestines concentration,MCF-7 xenografts; [5],10±1.19 % ID/g
same,tumor-to-blood ratio,"MCF-7 xenografts; MCF-7 bearing mice, 2 h p.i.",> 5
same,tumor-to-bone ratio,"MCF-7 xenografts; MCF-7 bearing mice, 2 h p.i.",> 10
same,tumor-to-muscle ratio,"MCF-7 xenografts; MCF-7 bearing mice, 2 h p.i.",> 15
same,tumor uptake after injection of palbociclib prior to the radiotracer,"MCF-7 xenografts; MCF-7 bearing mice, in words",negligible
same,"tumor uptake, blocked","MCF-7 xenografts; MCF-7 xenografts, 50-fold excess of cold palbociclib pre-injected",~0.3 % ID/g
same,tumor uptake,"MCF-7 xenografts; MCF-7 xenografts, ^18F-CDKi alone, 2 h p.i.",~4 % ID/g
same,clearance route,"MCF-7 xenografts; PET imaging and biodistribution, mice",hepatobiliary route
CC(=O)c1c(C)c2cnc(Nc3ccc(N4CCN(C(=O)c5ccc(F)cc5)CC4)cn3)nc2n(C2CCCC2)c1=O [^19F-CDKi],binding affinity to CDK4/6,CDK4/6; in words,nanomolar
same,IC50,MCF-7 cells [3],~18 nM
